According to PubChem BioAssay AID1845206 (Molecular Pharmacology Branch, DTP, NCI, 2023):

Test system: NCI-H1618 multicellular tumor spheroid viability
Test: Anticancer human tumor NCI-H1618 cell line growth inhibition;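 also: spheroids exposed to agents for 7 days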
Conditions: for IC50: curve of first compound; for viability, T/C: stronger effect = lower value; active = viability on the fitted dose curve at most 10% of control; inactive = the rest
Outline: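 Complex spheroids of malignant cells with endothelial cells and mesenchymal stem cells; agents alone or combined, from near clinical Cmax (or 10 microM if unknown) down in half-log steps, 0.25% DMSO final.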

[1] = second compound 30 pM, first compound 0.0316 µM
[2] = second compound 30 pM, first compound 0.1 µM
[3] = second compound 30 pM, first compound 0.316 µM
[4] = second compound 30 pM, first compound 1 µM
[5] = second compound 30 pM, first compound 3.16 µM
[6] = second compound 30 pM, first compound 10 µM
[7] = second compound 94.9 pM, first compound 0.0316 µM
[8] = second compound 94.9 pM, first compound 0.1 µM
[9] = second compound 94.9 pM, first compound 0.316 µM
[10] = second compound 94.9 pM, first compound 1 µM
[11] = second compound 94.9 pM, first compound 3.16 µM
[12] = second compound 94.9 pM, first compound 10 µM
[13] = second compound 0.0003 µM, first compound 0.0316 µM
[14] = second compound 0.0003 µM, first compound 0.1 µM
[15] = second compound 0.0003 µM, first compound 0.316 µM
[16] = second compound 0.0003 µM, first compound 1 µM
[17] = second compound 0.0003 µM, first compound 3.16 µM
[18] = second compound 0.0003 µM, first compound 10 µM
[19] = second compound 0.000949 µM, first compound 0.0316 µM
[20] = second compound 0.000949 µM, first compound 0.1 µM
[21] = second compound 0.000949 µM, first compound 0.316 µM
[22] = second compound 0.000949 µM, first compound 1 µM
[23] = second compound 0.000949 µM, first compound 3.16 µM
[24] = second compound 0.000949 µM, first compound 10 µM
[25] = second compound 0.003 µM, first compound 0.0316 µM
[26] = second compound 0.003 µM, first compound 0.1 µM
[27] = second compound 0.003 µM, first compound 0.316 µM
[28] = second compound 0.003 µM, first compound 1 µM
[29] = second compound 0.003 µM, first compound 3.16 µM
[30] = second compound 0.003 µM, first compound 10 µM
[31] = second compound 1 µM, first compound 0.0949 µM
[32] = second compound 1 µM, first compound 0.3 µM
[33] = second compound 1 µM, first compound 0.949 µM
[34] = second compound 1 µM, first compound 3 µM
[35] = second compound 3.16 µM, first compound 0.0949 µM
[36] = second compound 3.16 µM, first compound 0.3 µM
[37] = second compound 3.16 µM, first compound 0.949 µM
[38] = second compound 3.16 µM, first compound 3 µM
[39] = second compound 10 µM, first compound 0.0949 µM
[40] = second compound 10 µM, first compound 0.3 µM
[41] = second compound 10 µM, first compound 0.949 µM
[42] = second compound 10 µM, first compound 3 µM
[43] = second compound 31.6 µM, first compound 0.0949 µM
[44] = second compound 31.6 µM, first compound 0.3 µM
[45] = second compound 31.6 µM, first compound 0.949 µM
[46] = second compound 31.6 µM, first compound 3 µM
[47] = second compound 100 µM, first compound 0.0949 µM
[48] = second compound 100 µM, first compound 0.3 µM
[49] = second compound 100 µM, first compound 0.949 µM
[50] = second compound 100 µM, first compound 3 µM

CC(C)n1c(=O)n(C)c2cnc3cc(F)c(-c4ccc(OCCCN5CCCCC5)nc4)cc3c21 + COc1cc2c(cc1O)CCNC21CSC2c3c(OC(C)=O)c(C)c4c(c3C(COC1=O)N1C(O)C3Cc5cc(C)c(OC)c(O)c5C(C21)N3C)OCO4
inactive: viability, T/C [1] 98.6% | viability, T/C [2] 66.3% | viability, T/C [3] 83% | viability, T/C [4] 103% | viability, T/C [5] 70% | viability, T/C [6] 42.2% | viability, T/C [7] 46.2% | viability, T/C [8] 13.4% | viability, T/C [9] 36.4% | viability, T/C [10] 42.7% | viability, T/C [11] 34.5% | viability, T/C [12] 15.9%
< 31.6 nM: IC50 (second compound 94.9 pM) | IC50 (second compound 0.0003 µM) | IC50 (second compound 0.000949 µM) | IC50 (second compound 0.003 µM)
active: viability, T/C [13] 3.13% | viability, T/C [14] 2.8% | viability, T/C [15] 4.96% | viability, T/C [16] 7.62% | viability, T/C [17] 9.67% | viability, T/C [18] 7.88% | viability, T/C [19] 5.33% | viability, T/C [20] 5.23% | viability, T/C [21] 5.71% | viability, T/C [22] 5.14% | viability, T/C [23] 5.57% | viability, T/C [24] 8.28% | viability, T/C [25] 5.09% | viability, T/C [26] 4.6% | viability, T/C [27] 4.56% | viability, T/C [28] 5.67% | viability, T/C [29] 3.66% | viability, T/C [30] 5.04%
7230 nM: IC50 (second compound 30 pM)

COc1ccc([C@@H](O)c2cc(-c3ncnc4cc(N5CCOCC5)ccc34)c(F)cc2Cl)nn1 + COc1cc2c(cc1O)CCNC21CSC2c3c(OC(C)=O)c(C)c4c(c3C(COC1=O)N1C(O)C3Cc5cc(C)c(OC)c(O)c5C(C21)N3C)OCO4
3720 nM: IC50 (second compound 30 pM)
inactive: viability, T/C [1] 94.5% | viability, T/C [2] 103% | viability, T/C [3] 104% | viability, T/C [4] 97.6% | viability, T/C [5] 55.8% | viability, T/C [6] 15% | viability, T/C [7] 75.4% | viability, T/C [8] 82.7% | viability, T/C [9] 55.5% | viability, T/C [10] 65.7% | viability, T/C [11] 32.6% | viability, T/C [13] 14.8% | viability, T/C [14] 29.8% | viability, T/C [15] 13.9%
active: viability, T/C [12] 3.93% | viability, T/C [16] 3.02% | viability, T/C [17] 3.64% | viability, T/C [18] 0.49% | viability, T/C [19] 4.34% | viability, T/C [20] 4.36% | viability, T/C [21] 3.33% | viability, T/C [22] 3.78% | viability, T/C [23] 5.45% | viability, T/C [24] 0.45% | viability, T/C [25] 2.98% | viability, T/C [26] 4.77% | viability, T/C [27] 4.99% | viability, T/C [28] 3.43% | viability, T/C [29] 2.67% | viability, T/C [30] 1.04%
1450 nM: IC50 (second compound 94.9 pM)
< 31.6 nM: IC50 (second compound 0.0003 µM) | IC50 (second compound 0.000949 µM) | IC50 (second compound 0.003 µM)

Cn1ncnc1[C@H]1c2n[nH]c(=O)c3cc(F)cc(c23)N[C@@H]1c1ccc(F)cc1 + Cn1nnc2c(C(N)=O)ncn2c1=O
9.72 nM: IC50 (second compound 1 µM)
< 9.49 nM: IC50 (second compound 3.16 µM) | IC50 (second compound 10 µM) | IC50 (second compound 31.6 µM) | IC50 (second compound 100 µM)
inactive: viability, T/C (second compound 1 µM, first compound 0.00949 µM) 50.5% | viability, T/C (second compound 1 µM, first compound 0.03 µM) 26.7% | viability, T/C (second compound 3.16 µM, first compound 0.00949 µM) 3.96% | viability, T/C (second compound 3.16 µM, first compound 0.03 µM) 22.4% | viability, T/C [35] 21.4% | viability, T/C [36] 1.75% | viability, T/C [37] 1.84% | viability, T/C [38] 19.8% | viability, T/C (second compound 10 µM, first compound 0.00949 µM) 19.2%
active: viability, T/C [31] 4.42% | viability, T/C [32] 1.85% | viability, T/C [33] 2.02% | viability, T/C [34] 2.04% | viability, T/C (second compound 10 µM, first compound 0.03 µM) 1.53% | viability, T/C [39] 2.45% | viability, T/C [40] 2.8% | viability, T/C [41] 18.3% | viability, T/C [42] 1.95% | viability, T/C (second compound 31.6 µM, first compound 0.00949 µM) 1.95% | viability, T/C (second compound 31.6 µM, first compound 0.03 µM) 1.94% | viability, T/C [43] 3.12% | viability, T/C [44] 1.9% | viability, T/C [45] 1.85% | viability, T/C [46] 2.06% | viability, T/C (second compound 100 µM, first compound 0.00949 µM) 1.84% | viability, T/C (second compound 100 µM, first compound 0.03 µM) 2.1% | viability, T/C [47] 2.47% | viability, T/C [48] 2.51% | viability, T/C [49] 18.2% | viability, T/C [50] 2.29%

O=C(c1cc(Cc2n[nH]c(=O)c3ccccc23)ccc1F)N1CCN(C(=O)C2CC2)CC1 + Cn1nnc2c(C(N)=O)ncn2c1=O
179 nM: IC50 (second compound 1 µM)
< 94.9 nM: IC50 (second compound 3.16 µM) | IC50 (second compound 10 µM) | IC50 (second compound 31.6 µM) | IC50 (second compound 100 µM)
inactive: viability, T/C [31] 77.8% | viability, T/C [32] 22.5% | viability, T/C [33] 23.6% | viability, T/C [34] 20.8% | viability, T/C (second compound 1 µM, first compound 9.49 µM) 2.93% | viability, T/C (second compound 1 µM, first compound 30 µM) 5.71% | viability, T/C [35] 19.4% | viability, T/C [36] 25.9% | viability, T/C [37] 23.3% | viability, T/C [38] 3.5% | viability, T/C (second compound 3.16 µM, first compound 9.49 µM) 24.2% | viability, T/C (second compound 3.16 µM, first compound 30 µM) 8.1% | viability, T/C [39] 24.5% | viability, T/C [40] 23.7% | viability, T/C [41] 21.8% | viability, T/C [42] 20% | viability, T/C (second compound 10 µM, first compound 9.49 µM) 20.2% | viability, T/C (second compound 10 µM, first compound 30 µM) 5.57% | viability, T/C [43] 24.9% | viability, T/C [44] 26.2% | viability, T/C [45] 21.8% | viability, T/C [46] 20.8% | viability, T/C (second compound 31.6 µM, first compound 9.49 µM) 20.5% | viability, T/C (second compound 31.6 µM, first compound 30 µM) 3.19% | viability, T/C [47] 21.8% | viability, T/C [48] 23.7% | viability, T/C [49] 23% | viability, T/C [50] 21.4%
active: viability, T/C (second compound 100 µM, first compound 9.49 µM) 2.71% | viability, T/C (second compound 100 µM, first compound 30 µM) 2.88%
